Reference: PMC7822063, “Analogues of 2′-hydroxychalcone with modified C4-substituents as the inhibitors against human acetylcholinesterase” (Journal of Enzyme Inhibition and Medicinal Chemistry, 2020)

Tests used:
[1] = molecular target: human recombinant AChE (Homo sapiens, UniProt P22303); experiment: biochemical; details: for inhibition at 10 µM / IC50: mean of triplicate; for Selectivity index: IC50 (BuChE)/IC50 (AChE)
Method: To determine the inhibitory activity of the target compounds towards cholinesterases, the AChE and BuChE inhibition assays were performed in 96 well plates by the method of Ellman with slight modifications. […] Then, the mixture was incubated for 20 min at 37 °C. Subsequently, the reaction was initiated by addition of 50 μL (0.120 mM) of the substrate, acetylthiocholine (ATC) iodide or butyrylthiocholine (BTC) iodide (depending on the enzyme). […] Each assay was performed in triplicate. The percentage of inhibition was calculated using the following expression: (E–S)/E ×100 where E is the activity of the enzyme without test compound and S is the activity of the enzyme with the test compound. IC50 values were obtained from concentration-inhibition experiments by nonlinear regression analysis using PRISM® v5.0 (GraphPad Inc., San Diego, CA).
The designed 2′-hydroxychalcone derivatives were evaluated for their in vitro inhibitory activities against human recombinant AChE according to Ellman’s colorimetric assay method.

[2] = molecular target: equine BuChE (Equus caballus, UniProt P81908); experiment: biochemical; type: biochemical; details: mean of triplicate
Sequence of equine BuChE (P81908 whole entry): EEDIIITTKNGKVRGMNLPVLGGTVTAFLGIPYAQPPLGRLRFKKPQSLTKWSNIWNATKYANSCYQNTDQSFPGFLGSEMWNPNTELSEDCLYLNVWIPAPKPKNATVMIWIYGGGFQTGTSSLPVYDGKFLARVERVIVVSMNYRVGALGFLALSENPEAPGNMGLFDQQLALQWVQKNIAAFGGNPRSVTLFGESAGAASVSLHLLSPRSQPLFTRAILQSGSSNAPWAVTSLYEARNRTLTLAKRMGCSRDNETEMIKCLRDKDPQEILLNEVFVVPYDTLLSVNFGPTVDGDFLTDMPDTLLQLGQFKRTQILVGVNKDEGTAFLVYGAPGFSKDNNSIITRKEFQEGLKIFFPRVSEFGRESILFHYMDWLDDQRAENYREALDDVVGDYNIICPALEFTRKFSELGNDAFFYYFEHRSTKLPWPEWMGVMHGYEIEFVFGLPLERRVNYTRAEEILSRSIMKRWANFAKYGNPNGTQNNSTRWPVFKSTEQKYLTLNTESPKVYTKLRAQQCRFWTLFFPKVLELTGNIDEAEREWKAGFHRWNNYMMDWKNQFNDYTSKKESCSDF

Sequence of human recombinant AChE (P22303 32-614): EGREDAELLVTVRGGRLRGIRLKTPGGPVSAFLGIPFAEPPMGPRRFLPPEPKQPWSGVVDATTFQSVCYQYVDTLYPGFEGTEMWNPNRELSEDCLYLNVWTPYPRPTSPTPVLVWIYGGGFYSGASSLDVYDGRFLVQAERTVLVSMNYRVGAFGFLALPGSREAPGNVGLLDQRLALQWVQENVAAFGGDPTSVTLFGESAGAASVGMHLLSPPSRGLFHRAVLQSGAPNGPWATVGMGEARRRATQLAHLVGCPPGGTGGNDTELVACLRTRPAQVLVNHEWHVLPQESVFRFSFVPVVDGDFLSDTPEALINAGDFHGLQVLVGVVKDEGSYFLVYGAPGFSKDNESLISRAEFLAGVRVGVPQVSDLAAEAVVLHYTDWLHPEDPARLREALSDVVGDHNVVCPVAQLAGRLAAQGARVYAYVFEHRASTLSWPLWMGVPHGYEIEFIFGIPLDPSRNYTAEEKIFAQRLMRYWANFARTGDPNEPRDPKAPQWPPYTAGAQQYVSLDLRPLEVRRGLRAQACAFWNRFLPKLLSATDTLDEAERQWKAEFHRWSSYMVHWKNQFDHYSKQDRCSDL

| SMILES | inhibition at 10 µM [1] [%] | IC50 [2] [µM] | Selectivity index [1] | IC50 [1] [µM] | Equine BuChE IC50 [2] |
| --- | --- | --- | --- | --- | --- |
| COc1ccc(O)c(C(=O)/C=C/c2ccc(CC(=O)O)cc2)c1 [Compound 4g, (E)-2-(4-(3-(2-hydroxy-5-methoxyphenyl)-3-oxoprop-1-en-1-yl)phenyl)acetic acid] | 27 | – | – | – | – |
| COc1cc(O)c(C(=O)/C=C/c2ccc(OCCN3CCCCC3)cc2)cc1OC [Compound 8c, (E)-1-(2-hydroxy-4,5-dimethoxyphenyl)-3-(4-(2-(piperidin-1-yl)ethoxy)phenyl)prop-2-en-1-one] | 52.5 | – | – | – | – |
| COc1cc(O)c(C(=O)/C=C/c2ccc(OCCN3CCCC3)cc2)cc1OC [Compound 8d, (E)-1-(2-hydroxy-4,5-dimethoxyphenyl)-3-(4-(2-(pyrrolidin-1-yl)ethoxy)phenyl)prop-2-en-1-one] | 80.6 | 89.9 ± 12 | 5.7 | 15.9 ± 1.8 | – |
| COc1ccc(C(=O)/C=C/c2ccc(CC(=O)N3CCCC3)cc2)c(O)c1 [Compound 4d, (E)-1-(2-hydroxy-4-methoxyphenyl)-3-(4-(2-oxo-2-(pyrrolidin-1-yl)ethyl)phenyl)prop-2-en-1-one] | 30.8 | – | – | – | – |
| O=C(O)Cc1ccc(/C=C/C(=O)c2ccccc2O)cc1 [Compound 4f, (E)-2-(4-(3-(2-hydroxyphenyl)-3-oxoprop-1-en-1-yl)phenyl)acetic acid] | 10.7 | – | – | – | – |
| CCN(CC)C(=O)Cc1ccc(/C=C/C(=O)c2cc(OC)c(OC)cc2O)cc1 [Compound 4b, (E)-N,N-diethyl-2-(4-(3-(2-hydroxy-4,5-dimethoxyphenyl)-3-oxoprop-1-en-1-yl)phenyl)acetamide] | 58.5 | – | – | – | – |
| CCN(CC)C(=O)Cc1ccc(/C=C/C(=O)c2c(O)cc(OC)cc2OC)cc1 [Compound 4c, (E)-N,N-diethyl-2-(4-(3-(2-hydroxy-4,6-dimethoxyphenyl)-3-oxoprop-1-en-1-yl)phenyl)acetamide] | 87.5 | > 100 | >30 | 3.3 ± 1.3 | – |
| COc1ccc(C(=O)/C=C/c2ccc(OCCN3CCCC3)cc2)c(O)c1 [Compound 8b, (E)-1-(2-hydroxy-4-methoxyphenyl)-3-(4-(2-(pyrrolidin-1-yl)ethoxy)phenyl)prop-2-en-1-one] | 83 | 65.6 ± 14.8 | 5.1 | 12.8 ± 4.8 | – |
| COc1cc(O)c(C(=O)/C=C/c2ccc(CC(=O)N3CCCC3)cc2)cc1OC [Compound 4e, (E)-1-(2-hydroxy-4,5-dimethoxyphenyl)-3-(4-(2-oxo-2-(pyrrolidin-1-yl)ethyl)phenyl)prop-2-en-1-one] | 58.9 | – | – | – | – |
| COc1cc(O)c(C(=O)/C=C/c2ccc(CC(=O)O)cc2)c(OC)c1 [Compound 4h, (E)-2-(4-(3-(2-hydroxy-4,6-dimethoxyphenyl)-3-oxoprop-1-en-1-yl)phenyl)acetic acid] | 15.6 | – | – | – | – |
| COc1ccc(C(=O)/C=C/c2ccc(OCCN3CCCCC3)cc2)c(O)c1 [Compound 8a, (E)-1-(2-hydroxy-4-methoxyphenyl)-3-(4-(2-(piperidin-1-yl)ethoxy)phenyl)prop-2-en-1-one] | 79.9 | > 100 | >24 | 4.2 ± 1.3 | inactive |
| CCN(CC)C(=O)Cc1ccc(/C=C/C(=O)c2ccc(OC)cc2O)cc1 [Compound 4a, (E)-N,N-diethyl-2-(4-(3-(2-hydroxy-4-methoxyphenyl)-3-oxoprop-1-en-1yl)phenyl)acetamide] | 67.2 | – | – | – | – |
| COc1cc(O)c(C(=O)/C=C/c2ccc(OCCN3CCCC3)cc2)c(OC)c1 [Compound 8f, (E)-1-(2-hydroxy-4,6-dimethoxyphenyl)-3-(4-(2-(pyrrolidin-1-yl)ethoxy)phenyl)prop-2-en-1-one] | 81.4 | 31.3 ± 8.2 | 1.7 | 18.5 ± 3.8 | – |
| COc1cc(O)c(C(=O)/C=C/c2ccc(OCCN3CCCCC3)cc2)c(OC)c1 [Compound 8e, (E)-1-(2-hydroxy-4,6-dimethoxyphenyl)-3-(4-(2-(piperidin-1-yl)ethoxy)phenyl)prop-2-en-1-one] | 83.6 | 18.3 ± 8 | 4.0 | 4.6 ± 0.9 | – |
